Measured values: patent US20160223562A1, “Method for Determining the Concentration of a Peptide” (JPT Peptide Technologies GmbH, priority 2010, published 2016)
Square brackets hold non-standard residues; d marks the D form. Peptide text beside a SMILES is read from it. Tyr(3-NO2) = N[C@@H](Cc1ccc(O)c([N+](=O)[O-])c1)C(=O)O

What was measured:
Trypsin [1] = molecular target: T1, Trypsin (Sus scrofa, UniProt P00761); test: Trypsin cleavage of C-terminal quantification tag -SA-nitroTyr-G from peptides, LC-MS with UV detection at 350 nm; type: biochemical; details: after reduction and alkylation, trypsin enzyme/substrate 1:50 over night at RT
T1 construct: purchased Promega Corporation V511
T1 sequence (P00761 9-231): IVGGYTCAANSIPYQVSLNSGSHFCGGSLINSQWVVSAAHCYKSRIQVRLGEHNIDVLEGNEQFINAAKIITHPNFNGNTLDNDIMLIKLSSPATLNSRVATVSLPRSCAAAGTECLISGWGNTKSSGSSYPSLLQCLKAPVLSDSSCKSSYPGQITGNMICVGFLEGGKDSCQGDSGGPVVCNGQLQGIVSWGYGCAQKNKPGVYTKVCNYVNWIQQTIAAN
Experimental: 23 peptides carrying the C-terminal quantification-tag-SA-nitroTyr-G-OH (SEQ ID NO:2) were synthesized by Fmoc-based solid phase peptide synthesis and purified by HPLC. Each peptide was subjected to the following trypsin cleavage protocol:
(§1) Trypsin Activation: Trypsin (20 μg, sequencing grade modified trypsin, Promega Corporation, Madison, Wis., USA, catalogue no. V511, specific activity 16.965 u/mg) was dissolved in Trypsin resuspension buffer (200 μL, Promega, catalogue no. V542A, ingredient 50 mM acetic acid) and incubated for 15 min at 37° C.
(§2) Reduction and alkylation: The peptide (approx. 0.05 mg) was dissolved in 1 M urea and 100 mM fresh ammonium hydrogen carbonate (300 μL). TCEP (Tris(2-carboxyethyl) phosphine hydrochloride, 0.2 M, 7.5 μL, final concentration 5 mM) was added and the solution incubated at 37° C. for 1 h. After addition of iodoacetamide (0.5 M, 6.0 μL, final concentration 10 mM) the solution was incubated at RT in the dark for another 30 min. Digestion: The sample was digested with activated Trypsin solution (10 μL per well, 1.0 μg, resulting enzyme/substrate ratio 1:50) over night at RT. To stop the digestion, HCl (2 M, 8 μL final concentration 50 mM) and TFA (3.2 μL, final concentration 1%, pH<2) were added. Finally, the sample was analyzed by LC-MS at 350 nm.

Trypsin [2] = molecular target: T1, Trypsin; test: Trypsin cleavage of N-terminal quantification tag Ac-nitroTyr-SGK- from peptides, LC-MS with UV detection at 350 nm; type: biochemical; details: trypsin protocol of example 9, 24 h, RT
Experimental: as §1, §2
38 peptides carrying the N-terminal quantification-tag Ac-nitroTyr-SGK-(SEQ ID NO:32) were synthesized by SPOT synthesis (Table 3). The peptide sequences are based on two different amino acid sequences, which in each case contain 19 different amino acids N-terminally attached to lysine (the 20 naturally occurring amino acids except cysteine).
All peptides were subjected to the same trypsin cleavage protocol as described in example 9. It is apparent that the quantification tag is efficiently cleaved (>99%) in nearly all cases.

Compound | Percent Cleavage of Tag [by UV at 350 nm] (Trypsin [1]) [%] | Kusebauch 24 h, RT: Percent Cleavage of Tag [by UV350 - Peptide-Tag vs. Tag] (Trypsin [2]) [%]
CC(C)C[C@H](N)C(=O)N1CCC[C@H]1C(=O)N[C@@H](CC(N)=O)C(=O)NCC(=O)N[C@H](C(=O)N[C@@H](Cc1ccccc1)C(=O)N[C@H](C(=O)N1CCC[C@H]1C(=O)N[C@@H](CC(=O)O)C(=O)N[C@@H](Cc1ccccc1)C(=O)N[C@@H](CCC(N)=O)C(=O)N[C@@H](CCC(=O)O)C(=O)N[C@@H](Cc1ccccc1)C(=O)N[C@H](C(=O)N[C@@H](CC(N)=O)C(=O)N[C@@H](CCCCN)C(=O)N[C@@H](CO)C(=O)N[C@@H](C)C(=O)N[C@@H](Cc1ccc(O)c([N+](=O)[O-])c1)C(=O)NCC(=O)O)C(C)C)[C@@H](C)O)C(C)C [LPNGVFTPDFQEFVN-K-SA-nitroTyr-G] (H-LPNGVFTPDFQEFVNKSA[Tyr(3-NO2)]G-OH) | 95.4 | –
CC[C@H](C)[C@H](NC(=O)[C@@H](NC(=O)[C@@H](N)CO)C(C)C)C(=O)N[C@@H](CC(=O)O)C(=O)N1CCC[C@H]1C(=O)N[C@H](C(=O)N1CCC[C@H]1C(=O)N[C@@H](C)C(=O)N1CCC[C@H]1C(=O)N[C@H](C(=O)NCC(=O)N[C@@H](CC(=O)O)C(=O)N[C@@H](CO)C(=O)N[C@@H](Cc1c[nH]cn1)C(=O)N[C@H](C(=O)N[C@@H](CC(=O)O)C(=O)NCC(=O)N[C@@H](C)C(=O)N[C@@H](C)C(=O)N[C@@H](CCCCN)C(=O)N[C@@H](CO)C(=O)N[C@@H](C)C(=O)N[C@@H](Cc1ccc(O)c([N+](=O)[O-])c1)C(=O)NCC(=O)O)C(C)C)C(C)C)C(C)C [Peptide 2] (H-SVIDPVPAPVGDSHVDGAAKSA[Tyr(3-NO2)]G-OH) | 100 | –
CC(=O)N[C@@H](Cc1ccc(O)c([N+](=O)[O-])c1)C(=O)N[C@@H](CO)C(=O)NCC(=O)N[C@@H](CCCCN)C(=O)N[C@@H](Cc1c[nH]c2ccccc12)C(=O)N[C@H](C(=O)N[C@@H](C)C(=O)N[C@@H](CC(C)C)C(=O)N[C@@H](CO)C(=O)N[C@@H](CC(C)C)C(=O)N[C@@H](CC(=O)O)C(=O)N[C@@H](CC(=O)O)C(=O)N[C@H](C(=O)N[C@@H](CCCCN)C(=O)O)C(C)C)C(C)C [Peptide 39, Ac-nitroTyr-SGKWVALSLDDV-K-OH] (Ac-[Tyr(3-NO2)]SGKWVALSLDDVK-OH) | – | 100.0
CC(=O)N[C@@H](Cc1ccc(O)c([N+](=O)[O-])c1)C(=O)N[C@@H](CO)C(=O)NCC(=O)N[C@@H](CCCCN)C(=O)N[C@@H](CO)C(=O)N[C@H](C(=O)N[C@@H](C)C(=O)N[C@@H](CC(C)C)C(=O)N[C@@H](CO)C(=O)N[C@@H](CC(C)C)C(=O)N[C@@H](CC(=O)O)C(=O)N[C@@H](CC(=O)O)C(=O)N[C@H](C(=O)N[C@@H](CCCCN)C(=O)O)C(C)C)C(C)C [Peptide 36, Ac-nitroTyr-SGKSVALSLDDV-K-OH] (Ac-[Tyr(3-NO2)]SGKSVALSLDDVK-OH) | – | 100.0
CC(=O)N[C@@H](Cc1ccc(O)c([N+](=O)[O-])c1)C(=O)N[C@@H](CO)C(=O)NCC(=O)N[C@@H](CCCCN)C(=O)NCC(=O)N[C@H](C(=O)N[C@@H](C)C(=O)N[C@@H](CC(C)C)C(=O)N[C@@H](CO)C(=O)N[C@@H](CC(C)C)C(=O)N[C@@H](CC(=O)O)C(=O)N[C@@H](CC(=O)O)C(=O)N[C@H](C(=O)N[C@@H](CCCCN)C(=O)O)C(C)C)C(C)C [Peptide 26, Ac-nitroTyr-SGKGVALSLDDV-K-OH] (Ac-[Tyr(3-NO2)]SGKGVALSLDDVK-OH) | – | 99.3
CC(=O)N[C@@H](Cc1ccc(O)c([N+](=O)[O-])c1)C(=O)N[C@@H](CO)C(=O)NCC(=O)N[C@@H](CCCCN)C(=O)N[C@H](C(=O)N[C@H](C(=O)N[C@@H](C)C(=O)N[C@@H](CC(C)C)C(=O)N[C@@H](CO)C(=O)N[C@@H](CC(C)C)C(=O)N[C@@H](CC(=O)O)C(=O)N[C@@H](CC(=O)O)C(=O)N[C@H](C(=O)N[C@@H](CCCCN)C(=O)O)C(C)C)C(C)C)C(C)C [Peptide 38, Ac-nitroTyr-SGKVVALSLDDV-K-OH] (Ac-[Tyr(3-NO2)]SGKVVALSLDDVK-OH) | – | 100.0
CC(=O)N[C@@H](Cc1ccc(O)c([N+](=O)[O-])c1)C(=O)N[C@@H](CO)C(=O)NCC(=O)N[C@@H](CCCCN)C(=O)N[C@@H](Cc1c[nH]cn1)C(=O)N[C@H](C(=O)N[C@@H](C)C(=O)N[C@@H](CC(C)C)C(=O)N[C@@H](CO)C(=O)N[C@@H](CC(C)C)C(=O)N[C@@H](CC(=O)O)C(=O)N[C@@H](CC(=O)O)C(=O)N[C@H](C(=O)N[C@@H](CCCCN)C(=O)O)C(C)C)C(C)C [Peptide 27, Ac-nitroTyr-SGKHVALSLDDV-K-OH] (Ac-[Tyr(3-NO2)]SGKHVALSLDDVK-OH) | – | 100.0
CC(=O)N[C@@H](Cc1ccc(O)c([N+](=O)[O-])c1)C(=O)N[C@@H](CO)C(=O)NCC(=O)N[C@@H](CCCCN)C(=O)N[C@@H](CCCCN)C(=O)N[C@H](C(=O)N[C@@H](C)C(=O)N[C@@H](CC(C)C)C(=O)N[C@@H](CO)C(=O)N[C@@H](CC(C)C)C(=O)N[C@@H](CC(=O)O)C(=O)N[C@@H](CC(=O)O)C(=O)N[C@H](C(=O)N[C@@H](CCCCN)C(=O)O)C(C)C)C(C)C [Peptide 29, Ac-nitroTyr-SGKKVALSLDDV-K-OH] (Ac-[Tyr(3-NO2)]SGKKVALSLDDVK-OH) | – | 100.0
CSCC[C@H](NC(=O)[C@H](CCCCN)NC(=O)CNC(=O)[C@H](CO)NC(=O)[C@H](Cc1ccc(O)c([N+](=O)[O-])c1)NC(C)=O)C(=O)N[C@H](C(=O)N[C@@H](C)C(=O)N[C@@H](CC(C)C)C(=O)N[C@@H](CO)C(=O)N[C@@H](CC(C)C)C(=O)N[C@@H](CC(=O)O)C(=O)N[C@@H](CC(=O)O)C(=O)N[C@H](C(=O)N[C@@H](CCCCN)C(=O)O)C(C)C)C(C)C [Peptide 31, Ac-nitroTyr-SGKMVALSLDDV-K-OH] (Ac-[Tyr(3-NO2)]SGKMVALSLDDVK-OH) | – | 100.0
CC(=O)N[C@@H](Cc1ccc(O)c([N+](=O)[O-])c1)C(=O)N[C@@H](CO)C(=O)NCC(=O)N[C@@H](CCCCN)C(=O)N[C@@H](Cc1ccccc1)C(=O)N[C@H](C(=O)N[C@@H](C)C(=O)N[C@@H](CC(C)C)C(=O)N[C@@H](CO)C(=O)N[C@@H](CC(C)C)C(=O)N[C@@H](CC(=O)O)C(=O)N[C@@H](CC(=O)O)C(=O)N[C@H](C(=O)N[C@@H](CCCCN)C(=O)O)C(C)C)C(C)C [Peptide 25, Ac-nitroTyr-SGKFVALSLDDV-K-OH] (Ac-[Tyr(3-NO2)]SGKFVALSLDDVK-OH) | – | 100.0
CC[C@H](C)[C@H](NC(=O)[C@H](CC(C)C)NC(=O)[C@@H](N)CCC(=O)O)C(=O)N[C@@H](Cc1ccccc1)C(=O)N[C@@H](CCC(N)=O)C(=O)N[C@@H](CCC(=O)O)C(=O)N[C@H](C(=O)N[C@@H](C)C(=O)N[C@@H](CCCNC(=N)N)C(=O)N[C@@H](CO)C(=O)N[C@@H](C)C(=O)N[C@@H](Cc1ccc(O)c([N+](=O)[O-])c1)C(=O)NCC(=O)O)[C@@H](C)O [Peptide 22] (H-ELIFQETARSA[Tyr(3-NO2)]G-OH) | 100 | –
CC(=O)N[C@@H](Cc1ccc(O)c([N+](=O)[O-])c1)C(=O)N[C@@H](CO)C(=O)NCC(=O)N[C@@H](CCCCN)C(=O)N1CCC[C@H]1C(=O)N[C@H](C(=O)N[C@@H](C)C(=O)N[C@@H](CC(C)C)C(=O)N[C@@H](CO)C(=O)N[C@@H](CC(C)C)C(=O)N[C@@H](CC(=O)O)C(=O)N[C@@H](CC(=O)O)C(=O)N[C@H](C(=O)N[C@@H](CCCCN)C(=O)O)C(C)C)C(C)C [Peptide 33, Ac-nitroTyr-SGKPVALSLDDV-K-OH] (Ac-[Tyr(3-NO2)]SGKPVALSLDDVK-OH) | – | 5.4
CC(=O)N[C@@H](Cc1ccc(O)c([N+](=O)[O-])c1)C(=O)N[C@@H](CO)C(=O)NCC(=O)N[C@@H](CCCCN)C(=O)N[C@@H](CC(C)C)C(=O)N[C@H](C(=O)N[C@@H](C)C(=O)N[C@@H](CC(C)C)C(=O)N[C@@H](CO)C(=O)N[C@@H](CC(C)C)C(=O)N[C@@H](CC(=O)O)C(=O)N[C@@H](CC(=O)O)C(=O)N[C@H](C(=O)N[C@@H](CCCCN)C(=O)O)C(C)C)C(C)C [Peptide 30, Ac-nitroTyr-SGKLVALSLDDV-K-OH] (Ac-[Tyr(3-NO2)]SGKLVALSLDDVK-OH) | – | 100.0
CC[C@H](C)[C@H](NC(=O)[C@H](CCCCN)NC(=O)CNC(=O)[C@H](CO)NC(=O)[C@H](Cc1ccc(O)c([N+](=O)[O-])c1)NC(C)=O)C(=O)N[C@H](C(=O)N[C@@H](C)C(=O)N[C@@H](CC(C)C)C(=O)N[C@@H](CO)C(=O)N[C@@H](CC(C)C)C(=O)N[C@@H](CC(=O)O)C(=O)N[C@@H](CC(=O)O)C(=O)N[C@H](C(=O)N[C@@H](CCCCN)C(=O)O)C(C)C)C(C)C [Peptide 28, Ac-nitroTyr-SGKIVALSLDDV-K-OH] (Ac-[Tyr(3-NO2)]SGKIVALSLDDVK-OH) | – | 100.0
